Assay results reported in patent publication US11618747B2, “LXR modulators with bicyclic core moiety” (OrsoBio, Inc., priority 2018, dated 2023).
Read-outs that look alike come from different tables or passages of the source.

What was measured:
[1] = molecular target: T1, ligand-binding domain (LBD) of LXRβ (Homo sapiens, UniProt P55055, DUP175-175); test: LXR Gal4 reporter transient transfection assay (LBD-M2H Gal4β); type: cell-based; conditions: HEK293 cells
T1 construct: LXRβ (amino acids 156-461); expressed in transfected cells; host or cells: HEK293
T1 sequence (P55055 with tags, fused parts or gaps DUP175-175 limits assumed): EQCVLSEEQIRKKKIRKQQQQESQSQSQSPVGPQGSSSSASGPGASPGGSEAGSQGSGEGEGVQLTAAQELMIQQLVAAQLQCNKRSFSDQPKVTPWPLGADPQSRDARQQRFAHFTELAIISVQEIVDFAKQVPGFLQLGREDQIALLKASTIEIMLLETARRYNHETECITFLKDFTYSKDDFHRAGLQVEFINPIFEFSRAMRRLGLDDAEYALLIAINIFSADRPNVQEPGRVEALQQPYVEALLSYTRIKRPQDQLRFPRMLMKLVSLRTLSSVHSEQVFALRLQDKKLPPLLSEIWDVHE
Procedure, shortened: (§1)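 Mammalian two-hybrid in HEK293: AD-LXR (FL or LBD) + BD-cofactor (SRC1 coactivator or NCoR corepressor domain), pFR-Luc reporter, pRL-CMV normaliser; PEI transfection. Compound added 4 h later (DMSO ≤0.2% final), 16 h incubation at 37 °C. Firefly/Renilla luminescence measured sequentially in lysate.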

[2] = molecular target: T2, ligand-binding domain (LBD) of LXRα (Homo sapiens, UniProt Q13133); test: LXR Gal4 reporter transient transfection assay (LBD-M2H Gal4α); type: cell-based; conditions: HEK293 cells
T2 construct: expressed in transfected cells; host or cells: HEK293
T2 sequence (Q13133 155-447): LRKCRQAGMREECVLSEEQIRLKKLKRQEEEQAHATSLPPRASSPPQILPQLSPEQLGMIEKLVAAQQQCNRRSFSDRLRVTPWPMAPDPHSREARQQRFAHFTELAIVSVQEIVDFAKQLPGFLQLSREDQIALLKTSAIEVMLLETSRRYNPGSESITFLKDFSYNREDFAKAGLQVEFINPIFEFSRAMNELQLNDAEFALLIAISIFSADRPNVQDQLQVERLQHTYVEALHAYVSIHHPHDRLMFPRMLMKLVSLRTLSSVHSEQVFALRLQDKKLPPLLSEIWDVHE
Procedure, shortened: as §1

[3] = Pharmacokinetics in mice after single oral dosing (blood/plasma and liver exposure); type: in vivo, mice (C57/bl6/J); conditions: 20 mg/kg single oral dose
Experimental: The pharmacokinetics of the compounds was assessed in mice after single dosing and oral administrations. Blood/plasma and liver exposure was measured via LC-MS.
The study design was as follows:
Animals: C57/bl6/J (Janvier) males
Diet: standard rodent chow
Animal handling: animals were withdrawn from food at least 12 h before administration
Design: single dose oral administration, n=3 animals per group
Sacrifice: at stated time point (4, 12 or 24 h) after administration
Bioanalytics: LC-MS of liver and blood/plasma samples

[4] = LXRβ LBD, read-out: LBD-M2H Gal4β (EC50 range)
[5] = LXRα LBD, read-out: LBD-M2H Gal4α (EC50 range)

For `Cc1ccc(S(=O)(=O)n2c(-c3cccc(N4CC(C(=O)O)C4)c3)c(-c3ccsc3C#N)c3cc(F)ccc32)cc1` [3/32], the “LBD-M2H Gal4β efficacy (value in brackets)” value [1] was 81%, the EC50 ([1]; read-out: LBD-M2H Gal4β potency) was 13 nM and the “LBD-M2H Gal4α efficacy (value in brackets)” value [2] was 103%. For the same compound, the EC50 ([2]; read-out: LBD-M2H Gal4α potency) was 106 nM.
`Cc1ccc(S(=O)(=O)n2c(-c3cccc(N4CC(C(=O)O)C4)c3)c(-c3ccsc3C#N)c3cc(F)c(F)cc32)cc1` [3/42] gave an EC50 [1, 4] of under 100 nM and an EC50 [2, 5] of 100 to 1000 nM.
For `Cc1ccc(S(=O)(=O)n2c(-c3cccc(N4CC(C(=O)O)C4)c3)c(-c3ccsc3C#N)c3cc(F)c(Cl)cc32)cc1` [3/43], the EC50 [1, 4] was 100 to 1000 nM and the EC50 [2, 5] was 100 to 1000 nM.
With `Cc1ccc(S(=O)(=O)n2c(-c3cccc(N4CC(C(=O)O)C4)c3)c(-c3ccsc3C#N)c3cc(Cl)ccc32)cc1` [3/44] the EC50 [1, 4] was under 100 nM and the EC50 [2, 5] was under 100 nM.
`Cc1ccc(S(=O)(=O)n2c(-c3cccc(N4CC(C(=O)O)C4)c3)c(-c3ccsc3C#N)c3cc(C)ccc32)cc1` [3/46] gave an EC50 [1, 4] of under 100 nM and an EC50 [2, 5] of under 100 nM.
For `Cc1ccc(S(=O)(=O)n2c(-c3cccc(-c4ccc(C(=O)O)cc4Cl)c3)c(-c3ccsc3C#N)c3cc(F)ccc32)cc1` [3/48], the “blood/plasma exposure (below LLOQ, LLOQ given)” value ([3]; time point 12 h) was “(1.2 ng/mL)” and the liver exposure ([3]; time point 12 h) was “A (A: <300 nM)”.
In the case of `Cc1ccc(S(=O)(=O)n2c(-c3cccc(-c4ccc(C(=O)O)cc4)c3)c(-c3ccsc3C#N)c3cc(F)ccc32)cc1` [5/3], the blood/plasma exposure ([3]; time point 4 h) is reported as “C (C: 100 nM to <300 nM)”, the liver exposure ([3]; time point 4 h) is reported as “C (C: 1 μM to ≤3 μM)” and the liver/blood ratio ([3]; time point 4 h) is reported as “C (C: 10 to ≤30)”.
For `Cc1ccc(S(=O)(=O)n2c(-c3cccc(-c4ccc(C(=O)O)cc4)c3)c(-c3ccsc3C#N)c3cc(F)ccc32)cc1C` [23/2], the blood/plasma exposure ([3]; time point 4 h) was “B (B: 300 nM to ≤1 μM)”, the liver exposure ([3]; time point 4 h) was “D (D: >3 μM)” and the liver/blood ratio ([3]; time point 4 h) was “C (C: 10 to ≤30)”.
